The text below walks through data of the supplement of paper PMC11208160.
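Further: IS621 bridge recombinase in Escherichia coli cells against a fixed T5 target plasmid.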

The nature of this data set: recombinant UMI read abundance after kanamycin selection (control-corrected) (log10(CPM+1)); higher = more efficient recombination; extreme values may be limits of the assay; sequences stand for … in AGTGCAGAGAAAATCGGCCAGTTTTCTCTGCCTGCAGTCCGCATGCCGTGGGACCCCTTGGGTTCTAACCTGTTGCCTAGATTTATGCAGCGGACTGCCTTTCTCCCAAAGTGATAAACCGG…AGGTTGGTTTCACT; site = the 11-nt donor. How it is done:
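Pooled E. coli donor-specificity screen for the IS621 bridge recombinase. Each library member carries a reprogrammed 11-nt donor and a full-length LE bridge RNA expressed in cis from the natural promoter, with a paired donor-binding loop (8-nt LDG + 4-nt RDG) and a target-binding loop fixed to T5. It is co-electroporated with a T5 target plasmid; recombinase is induced with 0.07 mM IPTG and recombinants are selected on kanamycin. UMIs are counted as CPM, averaged over two biological replicates and corrected by the unselected control. Molecule = full bridge RNA written as DNA, built from the T5 scaffold: LDG = donor specificity nt 1-8, RDG = reverse complement of nt 8-11.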
In the case of “AATTTATCATGGACCGGTTTTCCCGGTAATCCGTATTTGTT (site AATTTATCTAA)”, the “recombinant UMI read abundance (log10)” value was determined as 0.558.

With “ACAAACCCATGGACCGGTTTTCCCGGTAATCCGTATTTGGG (site ACAAACCCTCC)”, the “recombinant UMI read abundance (log10)” value worked out at 0.

With “ACAAATCCATGGACCGGTTTTCCCGGTAATCCGTATTTGAC (site ACAAATCCTGT)”, the “recombinant UMI read abundance (log10)” value worked out at 0.255.

In the case of “ACAAATCCATGGACCGGTTTTCCCGGTAATCCGTATTTGAC (site ACACATCCTGT)”, the “recombinant UMI read abundance (log10)” value amounted to 0.

With “ACAAATCCATGGACCGGTTTTCCCGGTAATCCGTATTTGAC (site ACAGATCCTGT)”, the “recombinant UMI read abundance (log10)” value is 0.

For “ACAAATCCATGGACCGGTTTTCCCGGTAATCCGTATTTGAC (site ACATATCCTGT)”, the “recombinant UMI read abundance (log10)” value came out at 0.

“ACAATCGCATGGACCGGTTTTCCCGGTAATCCGTATTTGAA (site ACAATCGCTTT)”: the “recombinant UMI read abundance (log10)” value is 2.55.

Turning to “ACAATGTCATGGACCGGTTTTCCCGGTAATCCGTATTTGCG (site ACAATGTCTCG)”, the “recombinant UMI read abundance (log10)” value was 3.04.

With “ACACAAACATGGACCGGTTTTCCCGGTAATCCGTATTTGTC (site ACACAAACTGA)”, the “recombinant UMI read abundance (log10)” value stood at 2.41.

Regarding “ACACAAACATGGACCGGTTTTCCCGGTAATCCGTATTTGTC (site ACACCAACTGA)”, the “recombinant UMI read abundance (log10)” value is 0.

“ACACAAACATGGACCGGTTTTCCCGGTAATCCGTATTTGTC (site ACACGAACTGA)”: the “recombinant UMI read abundance (log10)” value was found to be 0.

For “ACACAAACATGGACCGGTTTTCCCGGTAATCCGTATTTGTC (site ACACTAACTGA)”, the “recombinant UMI read abundance (log10)” value amounted to 0.

Regarding “ACACAACCATGGACCGGTTTTCCCGGTAATCCGTATTTGAC (site ACACAACCTGT)”, the “recombinant UMI read abundance (log10)” value was 0.

Consider “ACACAACCATGGACCGGTTTTCCCGGTAATCCGTATTTGAC (site ACACACCCTGT)”, for which the “recombinant UMI read abundance (log10)” value was 0.

On to “ACACAACCATGGACCGGTTTTCCCGGTAATCCGTATTTGAC (site ACACAGCCTGT)”, for which the “recombinant UMI read abundance (log10)” value was found to be 0.668.

Regarding “ACACAACCATGGACCGGTTTTCCCGGTAATCCGTATTTGAC (site ACACATCCTGT)”, the “recombinant UMI read abundance (log10)” value worked out at 0.

Consider “ACACATCCATGGACCGGTTTTCCCGGTAATCCGTATTTGAT (site ACACATCCTAT)”, for which the “recombinant UMI read abundance (log10)” value came out at 1.34.

For the sequence “ACACATCCATGGACCGGTTTTCCCGGTAATCCGTATTTGAT (site ACACATCCTCT)”, the “recombinant UMI read abundance (log10)” value was 0.0152.

“ACACATCCATGGACCGGTTTTCCCGGTAATCCGTATTTGAT (site ACACATCCTGT)”: the “recombinant UMI read abundance (log10)” value came out at 0.

“ACACATCCATGGACCGGTTTTCCCGGTAATCCGTATTTGAT (site ACACATCCTTT)”: the “recombinant UMI read abundance (log10)” value is 0.0785.

As for “ACACATGCATGGACCGGTTTTCCCGGTAATCCGTATTTGAC (site ACACATACTGT)”, the “recombinant UMI read abundance (log10)” value amounted to 2.59.

For “ACACATGCATGGACCGGTTTTCCCGGTAATCCGTATTTGAC (site ACACATCCTGT)”, the “recombinant UMI read abundance (log10)” value came to 1.71.

“ACACATGCATGGACCGGTTTTCCCGGTAATCCGTATTTGAC (site ACACATGCTGT)”: the “recombinant UMI read abundance (log10)” value worked out at 2.6.

In the case of “ACACATGCATGGACCGGTTTTCCCGGTAATCCGTATTTGAC (site ACACATTCTGT)”, the “recombinant UMI read abundance (log10)” value is 0.598.

As to “ACACATTCATGGACCGGTTTTCCCGGTAATCCGTATTTGAC (site ACACATACTGT)”, the “recombinant UMI read abundance (log10)” value was found to be 0.745.

Regarding “ACACATTCATGGACCGGTTTTCCCGGTAATCCGTATTTGAC (site ACACATCCTGT)”, the “recombinant UMI read abundance (log10)” value amounted to 0.331.

Take “ACACATTCATGGACCGGTTTTCCCGGTAATCCGTATTTGAC (site ACACATGCTGT)”: the “recombinant UMI read abundance (log10)” value amounted to 0.

With “ACACATTCATGGACCGGTTTTCCCGGTAATCCGTATTTGAC (site ACACATTCTGT)”, the “recombinant UMI read abundance (log10)” value turned out to be 2.74.

For “ACACCAGCATGGACCGGTTTTCCCGGTAATCCGTATTTGAT (site ACACCAGCTAT)”, the “recombinant UMI read abundance (log10)” value stood at 2.01.

Take “ACACCCACATGGACCGGTTTTCCCGGTAATCCGTATTTGAG (site ACACCCACTCT)”: the “recombinant UMI read abundance (log10)” value was 1.37.

Regarding “ACACGAACATGGACCGGTTTTCCCGGTAATCCGTATTTGTC (site AAACGAACTGA)”, the “recombinant UMI read abundance (log10)” value was 0.

On to “ACACGAACATGGACCGGTTTTCCCGGTAATCCGTATTTGTC (site ACAAGAACTGA)”, for which the “recombinant UMI read abundance (log10)” value is 0.

For “ACACGAACATGGACCGGTTTTCCCGGTAATCCGTATTTGTC (site ACACAAACTGA)”, the “recombinant UMI read abundance (log10)” value was found to be 1.4.

Take “ACACGAACATGGACCGGTTTTCCCGGTAATCCGTATTTGTC (site ACACCAACTGA)”: the “recombinant UMI read abundance (log10)” value was 0.

Turning to “ACACGAACATGGACCGGTTTTCCCGGTAATCCGTATTTGTC (site ACACGAACTAA)”, the “recombinant UMI read abundance (log10)” value was 1.83.

With “ACACGAACATGGACCGGTTTTCCCGGTAATCCGTATTTGTC (site ACACGAACTCA)”, the “recombinant UMI read abundance (log10)” value was determined as 0.338.

Regarding “ACACGAACATGGACCGGTTTTCCCGGTAATCCGTATTTGTC (site ACACGAACTGA)”, the “recombinant UMI read abundance (log10)” value was determined as 2.77.

“ACACGAACATGGACCGGTTTTCCCGGTAATCCGTATTTGTC (site ACACGAACTGC)”: the “recombinant UMI read abundance (log10)” value came to 0.

In the case of “ACACGAACATGGACCGGTTTTCCCGGTAATCCGTATTTGTC (site ACACGAACTGG)”, the “recombinant UMI read abundance (log10)” value came out at 1.74.

“ACACGAACATGGACCGGTTTTCCCGGTAATCCGTATTTGTC (site ACACGAACTGT)”: the “recombinant UMI read abundance (log10)” value was determined as 1.41.

For the sequence “ACACGAACATGGACCGGTTTTCCCGGTAATCCGTATTTGTC (site ACACGAACTTA)”, the “recombinant UMI read abundance (log10)” value was determined as 1.96.

Turning to “ACACGAACATGGACCGGTTTTCCCGGTAATCCGTATTTGTC (site ACACGACCTGA)”, the “recombinant UMI read abundance (log10)” value came to 0.

As for “ACACGAACATGGACCGGTTTTCCCGGTAATCCGTATTTGTC (site ACACGAGCTGA)”, the “recombinant UMI read abundance (log10)” value came to 0.

“ACACGAACATGGACCGGTTTTCCCGGTAATCCGTATTTGTC (site ACACGATCTGA)”: the “recombinant UMI read abundance (log10)” value was determined as 1.55.

“ACACGAACATGGACCGGTTTTCCCGGTAATCCGTATTTGTC (site ACACGCACTGA)”: the “recombinant UMI read abundance (log10)” value stood at 0.

In the case of “ACACGAACATGGACCGGTTTTCCCGGTAATCCGTATTTGTC (site ACACGGACTGA)”, the “recombinant UMI read abundance (log10)” value is 1.61.

As to “ACACGAACATGGACCGGTTTTCCCGGTAATCCGTATTTGTC (site ACACGTACTGA)”, the “recombinant UMI read abundance (log10)” value worked out at 0.

Turning to “ACACGAACATGGACCGGTTTTCCCGGTAATCCGTATTTGTC (site ACACTAACTGA)”, the “recombinant UMI read abundance (log10)” value amounted to 0.

For the sequence “ACACGAACATGGACCGGTTTTCCCGGTAATCCGTATTTGTC (site ACAGGAACTGA)”, the “recombinant UMI read abundance (log10)” value stood at 0.

As to “ACACGAACATGGACCGGTTTTCCCGGTAATCCGTATTTGTC (site ACATGAACTGA)”, the “recombinant UMI read abundance (log10)” value was 0.

“ACACGAACATGGACCGGTTTTCCCGGTAATCCGTATTTGTC (site ACCCGAACTGA)”: the “recombinant UMI read abundance (log10)” value stood at 0.

For “ACACGAACATGGACCGGTTTTCCCGGTAATCCGTATTTGTC (site ACGCGAACTGA)”, the “recombinant UMI read abundance (log10)” value was 0.

As for “ACACGAACATGGACCGGTTTTCCCGGTAATCCGTATTTGTC (site ACTCGAACTGA)”, the “recombinant UMI read abundance (log10)” value worked out at 0.747.

Consider “ACACGAACATGGACCGGTTTTCCCGGTAATCCGTATTTGTC (site AGACGAACTGA)”, for which the “recombinant UMI read abundance (log10)” value worked out at 0.

Turning to “ACACGAACATGGACCGGTTTTCCCGGTAATCCGTATTTGTC (site ATACGAACTGA)”, the “recombinant UMI read abundance (log10)” value was found to be 0.0105.

In the case of “ACACGAACATGGACCGGTTTTCCCGGTAATCCGTATTTGTC (site CCACGAACTGA)”, the “recombinant UMI read abundance (log10)” value was 0.924.

In the case of “ACACGAACATGGACCGGTTTTCCCGGTAATCCGTATTTGTC (site GCACGAACTGA)”, the “recombinant UMI read abundance (log10)” value turned out to be 0.

Consider “ACACGAACATGGACCGGTTTTCCCGGTAATCCGTATTTGTC (site TCACGAACTGA)”, for which the “recombinant UMI read abundance (log10)” value stood at 0.

For the sequence “ACACGGACATGGACCGGTTTTCCCGGTAATCCGTATTTGGC (site ACACGGACTGC)”, the “recombinant UMI read abundance (log10)” value was 2.58.

As for “ACACGTACATGGACCGGTTTTCCCGGTAATCCGTATTTGTC (site ACACGAACTGA)”, the “recombinant UMI read abundance (log10)” value amounted to 0.

For “ACACGTACATGGACCGGTTTTCCCGGTAATCCGTATTTGTC (site ACACGCACTGA)”, the “recombinant UMI read abundance (log10)” value was 0.199.

Regarding “ACACGTACATGGACCGGTTTTCCCGGTAATCCGTATTTGTC (site ACACGGACTGA)”, the “recombinant UMI read abundance (log10)” value was 0.

Turning to “ACACGTACATGGACCGGTTTTCCCGGTAATCCGTATTTGTC (site ACACGTACTGA)”, the “recombinant UMI read abundance (log10)” value was 1.49.

Regarding “ACAGACACATGGACCGGTTTTCCCGGTAATCCGTATTTGTC (site ACAGACACTGA)”, the “recombinant UMI read abundance (log10)” value was determined as 2.7.

Regarding “ACAGACCCATGGACCGGTTTTCCCGGTAATCCGTATTTGCC (site ACAGACCCTGG)”, the “recombinant UMI read abundance (log10)” value turned out to be 1.2.
